Square brackets hold non-standard residues; d marks the D form. Peptide text beside a SMILES is read from it. * marks the point of attachment. 3Pal = N[C@@H](Cc1cccnc1)C(=O)O; β3hF = N[C@H](CC(=O)O)Cc1ccccc1; PhAc = O=C(Cc1ccccc1)*; azaGly = NNC(=O)O

In assay [1] the target is T1, PGF2α receptor (FP) (Homo sapiens, UniProt P43088). Briefly: Cell ruffling in FP expressing HEK293 cells. The conditions noted are these: 30 min; for inhibition of FP-induced (PGF2α-mediated) cell ruffling: pretreated 1 μM, then PGF2α 1 μM.
Description: Nine fields (50-75 cells/field) per cover slip were quantified to assess circular cellular ruffling.
Assay [2] has as its system SW480 cells. Nature of the assay: Migration/invasion of SW480 cells in collagen-coated Boyden chambers. It counts as cell-based, human. The conditions noted are these: 1 μM, 30 min pre-treatment, 16 h; for PGF2α-induced migration of SW480 cells: then 1 μM PGF2α. As to the method: SW480 cells were re-seeded into collagen-coated Boyden chambers, pretreated with PDC (1 μM, 30 min.), and stimulated or not with 1 μM PGF2α and PGE2 (use to show specificity of analogs for FP). Migration/invasion was assessed after 16 h.
Migration/invasion was assessed after 16 h.

Assay [3] addresses T1, PGF2α receptor (FP). Briefly: ERK1/2 MAP kinase activation in HEK293 cells stably transfected with HA-FP (western blot). It counts as cell-based. Set-up: expressed in transfected cells; host or cells: HEK293. The conditions noted are these: 1 μM azapeptide 30 min pre-treatment, then PGF2α 0.1 μM or 1 μM for 5 min. The protocol:
PGF2αreceptor (FP) expressing cells were serum-starved and pre-treated with 1 μM azapeptides (6-9) for 30 min and then stimulated with 0.1 μM (A) or 1 μM (B) PGF2α for 5 min as described.^24 Blots were quantified by densitometry and plotted compared to the non-stimulated (NS) condition. Results are representative of five independent experiments;
PGF2α was obtained from Cayman. Mouse monoclonal anti-p-ERK and rabbit polyclonal anti-total ERK antibodies were from Cell Signaling. HEK293 cells stably transfected with HA-FP (HA-FP cells)^24 were employed to measure activation of MAP kinase by PGF2α using conventional western blot methods. Briefly, HA-FP cells in 6-well plates were starved for 30 min and pre-treated with 1 μM of an azapeptide (6-9) for 30 min, and then challenged with PGF2α (0.1 μM or 1 μM) for 5 min. Cells were lysed in Laemmli buffer 2× (250 mM Tris-HCl pH 6.8, 2% SDS, 10% Glycerol, 0.01% Bromophenol blue). Lysates were electrophoresed on a 10% SDS-PAGE gels, transferred to nitrocellulose membranes, and probed using mouse anti-p-ERK1/2 and rabbit anti-total-ERK1/2 antibodies. Blots were quantified by densitometry and statistical tests were performed as described.^24

Assay [4] concerns PGF2α-induced myometrial contractions. Briefly: Ex vivo myometrial contraction assay. The conditions noted are these: mouse myometrial strips; compound given 15 min before PGF2α. Also on record: species or system mice. As to the method: FIGS. 7A and 7B show the effects of PDC113.824 and azapeptides 5-9 on mean tension in myometrial preparations induced by PGF2α. At the beginning of each experiment, mean tension of spontaneous myometrial contraction was considered as the basal response. […] Values as mean±SEM of 3-5 experiments for each compound; p<0.05 compared to all values without asterisks.
Ex vivo myometrial contraction assays were performed as previously described^24. Briefly, uteri from mice were obtained from animals immediately after delivery.

In assay [5] the test system is SW480, HT29, Caco-2 and HTC116 cells. Nature of the assay: Effect of PGF2α and PGE2 on colorectal cancer cell migration (collagen-coated Boyden chamber). The assay is classed as cell-based, human. The conditions noted are these: for migration of colorectal adenocarcinoma cell lines on stimulation: mediator 1 μM, 16 h, SW480, HT29, Caco-2, HTC116. As to the method: SW480 (p53 mut, K-Ras mut, APC mut), HT29 (p53 mut, K-Ras WT, APC mut), Caco-2 (p53 mut, K-Ras WT, APC mut), and HTC116 ([…], K-Ras mut, APC mut) cells were re-seeded into Boyden chambers coated with collagen, stimulated or not with FBS (10%), PGF2α (1 μM) or PGE2 (1 μM). Migration/invation was assessed after 16 h. Results are presented as mean±SEM of 3 independent experiments. *p<0.05, **p<0.01, ***p<0.001 compared to non-stimulated (ns) conditions;

T1 sequence (P43088 whole entry, species assumed): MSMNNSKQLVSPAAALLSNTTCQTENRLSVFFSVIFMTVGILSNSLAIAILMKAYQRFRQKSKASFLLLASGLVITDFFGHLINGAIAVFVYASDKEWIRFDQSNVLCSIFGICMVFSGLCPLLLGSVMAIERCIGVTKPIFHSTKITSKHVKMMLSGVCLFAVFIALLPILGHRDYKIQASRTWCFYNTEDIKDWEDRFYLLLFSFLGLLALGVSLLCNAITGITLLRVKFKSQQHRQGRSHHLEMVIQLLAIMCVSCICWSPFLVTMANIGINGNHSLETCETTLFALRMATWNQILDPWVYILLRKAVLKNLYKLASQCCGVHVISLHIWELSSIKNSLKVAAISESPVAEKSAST

For the molecule `O=C(O)C[C@H](Cc1ccccc1)NC(=O)[C@H](Cc1cccnc1)NC(=O)[C@@H]1CCCN1C(=O)NNC(=O)Cc1ccccc1` [Compound 5] (PhAc-[azaGly]P[3Pal][β3hF]-OH), in assay [1], the “inhibition of FP-induced (PGF2α-mediated) cell ruffling” value (from here on “inhibition of FP-induced”) is “as effective as PDC113.824 in inhibiting FP-induced cell ruffling”. Further, the “PGF2α-induced migration of SW480 cells” value in assay [2] was “significantly impaired the ability of SW480 cells to migrate”.

Regarding `C#CCN(NC(=O)Cc1ccccc1)C(=O)N1CCC[C@H]1C(=O)N[C@@H](Cc1cccnc1)C(=O)N[C@H](CC(=O)O)Cc1ccccc1` [Compound 6, Phenylacetyl-aza-propargylglycinyl-(2S)-prolyl-(2S)-3-(pyridyl)-alaninyl-(3S)-β-homophenylalanine], in assay [3], the “PGF2α-mediated ERK1/2 signaling relative to cells stimulated with PGF2α alone” value is “significantly potentiated”. In addition, the “inhibition of FP-induced” value in assay [1] is “slightly reduced PGF2α-mediated cell ruffling”. Moreover, the “PGF2α-induced migration of SW480 cells” value in assay [2] is on record as “had an effect on cell migration but was not as effective as the others”.

Turning to `O=C(O)C[C@H](Cc1ccccc1)NC(=O)[C@H](Cc1cccnc1)NC(=O)[C@@H]1CCCN1C(=O)N(Cc1ccccc1)NC(=O)Cc1ccccc1` [Compound 7], the “reduction of PGF2α-induced myometrial contractions (mean tension)” value in assay [4] is listed as “active”. In assay [3], the “PGF2α-mediated ERK1/2 signaling relative to cells stimulated with PGF2α alone” value is recorded as “significantly potentiated”. Besides, in assay [1], the “inhibition of FP-induced” value was “as effective as PDC113.824 in inhibiting FP-induced cell ruffling”. In addition, the “PGF2α-induced migration of SW480 cells” value in assay [2] was “significantly impaired the ability of SW480 cells to migrate”.

Take `C=CCN(NC(=O)Cc1ccccc1)C(=O)N1CCC[C@H]1C(=O)N[C@@H](Cc1cccnc1)C(=O)N[C@H](CC(=O)O)Cc1ccccc1` [Compound 8]: the “PGF2α-mediated ERK1/2 signaling relative to cells stimulated with PGF2α alone” value in assay [3] is recorded as “hindered”. In addition, in assay [1], the “inhibition of FP-induced” value was “as effective as PDC113.824 in inhibiting FP-induced cell ruffling”. Besides, in assay [2], the “PGF2α-induced migration of SW480 cells” value was “significantly impaired the ability of SW480 cells to migrate”.

Turning to `CN(NC(=O)Cc1ccccc1)C(=O)N1CCC[C@H]1C(=O)N[C@@H](Cc1cccnc1)C(=O)N[C@H](CC(=O)O)Cc1ccccc1` [Compound 9], the “PGF2α-mediated ERK1/2 signaling relative to cells stimulated with PGF2α alone” value in assay [3] is on record as “hindered”. The “inhibition of FP-induced” value in assay [1] was “slightly reduced PGF2α-mediated cell ruffling”. In assay [2], the “PGF2α-induced migration of SW480 cells” value was “relatively lower effect”.

Regarding `O=C(O)C[C@H](Cc1ccccc1)NC(=O)[C@H](Cc1cccnc1)NC(=O)[C@@H]1CC[C@@H]2CC[C@H](NC(=O)Cc3ccccc3)C(=O)N21` [PDC113.824, Phenylacetyl-(3S,6S,9S)-I^2aa-(2S)-(3-pyridyl)alaninyl-(3S)-β-homophenylalanine, reference compound], the “reduction of PGF2α-induced myometrial contractions (mean tension)” value in assay [4] is “active”. The “inhibition of FP-induced” value in assay [1] is reported as “inhibiting FP-induced cell ruffling”. For the same molecule, in assay [2] (then 1 μM PGE2), the “PGE2-induced migration of SW480 cells” value is reported as “without affecting migration induced by PGE2”. Also, in assay [2], the “PGF2α-induced migration of SW480 cells” value is listed as “significantly blocked PGF2α-induced migration”; the “migration of SW480 cells in the absence of PGF2α and PGE2” value is on record as “did not affect the migration of SW480 cells”.

Regarding `CCCCC[C@H](O)/C=C/[C@H]1[C@H](O)CC(=O)[C@@H]1C/C=C\CCCC(=O)O` [PGE2], the “migration of colorectal adenocarcinoma cell lines on stimulation” value in assay [5] was “enhanced migration of the four (4) cell lines examined”.

With `CCCCC[C@H](O)/C=C/[C@@H]1[C@@H](C/C=C\CCCC(=O)O)[C@@H](O)C[C@H]1O` [PGF2α], the “potency of PGF2α on migration compared with PGE2” value in assay [5] (SW480 and HT29 cells) was “as potent as PGE2”. In addition, in assay [5], the “migration of colorectal adenocarcinoma cell lines on stimulation” value is listed as “enhanced migration of the four (4) cell lines examined”. Besides, in assay [1] (PGF2α 1 μM), the “membrane ruffle formation, share of FP cells” value is given as 65.7 ± 1.6%.
